This is an account of results in patent publication US7183255B2, “Method for stabilizing blood pressure in hemodialysis subjects” (Intradialytic Pharmaceuticals, priority 2003, dated 2007).

Holding throughout (type): in vivo, human
In one data set the test system is normal subjects. Briefly: Systolic arterial pressure during AVP infusion in normal subjects (Example 1). The conditions noted are these: for systolic arterial blood pressure: normals, n=12, M ± SD. As for the experimental part:
Healthy controls and patients with end-stage renal disease (e.g. defined as creatinine clearance of less than 10 ml/min) were studied. The studies were conducted on regularly scheduled hemodialysis days. The duration of hemodialysis remained the same as that prescribed prior to the study period. AVP or placebo (normal saline) was administered at a constant rate of 0.15, 0.3 or o.6 mU/kg/min through a venous line (controls) or through the venous limb of the dialysis circuit (hemodialysis patients). The patient's hemodialysis prescription remained unchanged except for the administration of AVP or placebo. Intradialytic hypotension was treated in the customary manner with the infusion of isotonic and hypertonic fluids.
Serum AVP levels were determined by a radioimmunoassay technique. Blood pressure was measured with a cuff-type sphygmomanometer at 20 minute intervals.
We discovered that patients with ERSD are hypersensitive to vasopressin's pressor action.
The administration of exogenous AVP to patients with ESDR led to the discovery that these patients are hyper-responsive to the vascular effect of this hormone.

In data set [1] the test system is hypertensive patients with ESRD on chronic hemodialysis. Briefly: Randomized double-blinded trial of vasopressin vs placebo during hemodialysis with 0.5 kg increased target weight reduction (Example 3). As to conditions: vasopressin 0.3 mU·kg^−1·min^−1 during dialysis; for Lowest SAP: p=0.02 vs placebo; for Symptomatic hypotensive episodes: one of eleven patients, p=0.001 vs placebo. As for the experimental part:
(§1) All patients were studied at regularly scheduled dialysis sessions. Patients underwent conventional hemodialysis with hollow fiber high flux polysulfone dialyzers on volumetric dialysis machines (Cobe Centrysystem 3, Gambro Renal Care Products, Inc., Lakewood, Colo.). Dialysis times were 3.5–4.5 hours. Blood flow was 300–400 mL/min and dialysate was delivered at 600 mL/min. The dialysis bath contained potassium, 2 mEq/L; calcium, 2.5 mEq/L; magnesium, 0.75 mEq/L; and bicarbonate, 40 mEq/L. In those patients who were prescribed dialysate sodium modeling and/or reduced dialysate temperature (35–37° C.) prior to the study, the parameters of these interventions were held constant throughout the study. Ultrafiltration was performed at a constant rate based on the target weight loss for that dialysis session. Oscillometric blood pressure and heart rate measurements were taken at 15–30 minute intervals.
Exclusion criteria for all studies were: 1) active vascular disease, including angina, claudication, transient ischemic events, ischemic colitis and Raynaud's disease, 2) a history of prolonged QT syndrome, 3) a history of orthostatic hypotension and 4) a systolic blood pressure greater than 200 mm Hg and/or a diastolic blood pressure greater than 100 mm Hg. Fluid was administered for pressor support at the discretion of the dialysis staff, blinded to the study drug, on the basis of hypotensive episodes during dialysis. Excess fluid removed was defined as the difference between the baseline prescription weight loss and the actual weight loss achieved during the study hemodialysis.
Hemodialysis-induced fluid removal during vasopressin administration in hypertensive patients. 22 patients with ESRD on chronic hemodialysis and hypertension (defined by a systolic arterial pressure greater than 140 mm Hg or the requirement of anti-hypertensive medications to maintain a lower systolic arterial pressure) were studied. A randomized, controlled and double blinded trial compared the effect of vasopressin (0.3 mU·kg^−1·min^−1) or placebo (normal saline) on the capacity to tolerate a 0.5 kg increase in the target weight reduction specified by the standard dialysis prescription. Patients were studied only if their pre-dialysis weight was within ±1 kg. of the mean pre-dialysis weight of the previous three sessions.
Otherwise the hemodialysis routine was unchanged and its management was left to the health care personnel performing the treatment, who where not involved in the study. The nurse administering the hemodialysis treatment managed hypotensive episodes per routine with administration of normal saline and/or a decrease in ultrafiltration rate. Symptomatic hypotension was identified by the nurse conducting the dialysis and criteria included a sudden drop in systolic arterial pressure associated with one or more of the following: lightheadedness, dizziness, cramping, nausea and vomiting.
Statistical Analyses. Analyses were performed using Statistical Package for the Social Sciences, version 9. Changes in hemodynamic parameters within patients during each session and between sessions were analyzed by repeated measures of ANOVA. Analysis of continuous variables between treatment arms was performed using the Friedman (two-way) analysis of variance. All values are expressed as mean±SE unless otherwise stated. P values of less than […] (two-tailed) were considered statistically significant.
Effect of vasopressin administration during increased hemodialysis-induced luid removal. […]

Data set [2] can be described thus: Effect of hemodialysis on plasma vasopressin during constant vasopressin infusion (Example 3, Table 1). As to conditions: for level at 1 h / level at 2 h / level at 0 h: human, plasma, iv, mean±SE; for level at 1 h: 1 h Dialysis; for level at 2 h: 2 h Dialysis; for level at 0 h: Start Dialysis. As for the experimental part:
as §1
Plasma vasopressin concentration. Vasopressin in plasma was determined as previously described (Landry, D. W., H. R. Levin, et al. (1997). Circulation 95(5): 1122–5).
Administration of vasopressin. In eight normal subjects and eight patients with ESRD off dialysis, 8-arginine vasopressin (vasopressin, American Pharmaceutical Partners, Schaumberg, Ill.) in normal saline was administered through an antecubital intravenous line. In eight patients with ESRD during hemodialysis, vasopressin was infused through the venous (blood return) limb of the dialysis circuit throughout the dialysis session at a rate of 0.15 or 0.3 mU·kg^−1·min^−1.
Effect of hemodialysis on plasma vasopressin concentration during constant infusion of hormone. To determine whether hemodialysis removes vasopressin from plasma (Shimamoto, K., T. Ando, et al. (1977). J Clin Endocrinol Metab 45(4): 818–20; Rosansky, S. J., R. Rhinehart, et al. (1991). Clin Nephrol 35(4): 158–64), we examined the effect of the procedure on the steady state plasma concentration of hormone during constant infusion. Vasopressin was infused for >1 hour to obtain a stable plasma concentration, at which time hemodialysis was initiated.

The mark [3] stands for this setting: 0.15 mU/kg · min^−1, infusion 0.15 mU · kg^−1 · min^−1.
Where [4] appears, read: 0.3 mU/kg · min^−1, infusion 0.3 mU · kg^−1 · min^−1.

As to `NC(=O)CC[C@@H]1NC(=O)[C@H](Cc2ccccc2)NC(=O)[C@H](Cc2ccc(O)cc2)NC(=O)[C@@H](N)CSSC[C@@H](C(=O)N2CCC[C@H]2C(=O)N[C@@H](CCCN=C(N)N)C(=O)NCC(N)=O)NC(=O)[C@H](CC(N)=O)NC1=O` [AVP, 8-arginine vasopressin], the “pressor action of AVP” value in the data set with normal subjects (normal subjects, same dose as in ESRD patients (FIG. 3A)) is “no pressure action”. Further, the “systolic arterial blood pressure” value in the data set on normal subjects (30 minutes of AVP infusion) was determined as 114 ± 10; in the data set on normal subjects (60 minutes of AVP infusion), 113 ± 10; with normal subjects (90 minutes of AVP infusion), 114 ± 10; with normal subjects (120 minutes of AVP infusion), 113 ± 11; in the data set with normal subjects (before infusion (baseline)), 115 ± 13. For the same compound, the “Mean SAP during dialysis” value in data set [1] (11 patients, mean±SE) was determined as 145 ± 6 mmHg. In addition, the “Lowest SAP” value in data set [1] (11 patients, mean±SE, listed as Vasopressin) is reported as 130 ± 7 mmHg; in data set [1] (11 patients, mean±SE, listed as vasopressin) it was 130±7 mmHg. The “Maximum drop in SAP from mean” value worked out at 17 ± 2 mmHg in data set [1] (11 patients, mean±SE, p=0.03 vs placebo, listed as Vasopressin) and 17±2 mmHg in data set [1] (11 patients, mean±SE, p=0.03 vs placebo, listed as vasopressin). The Symptomatic hypotensive episodes in data set [1] (listed as Vasopressin) worked out at 9 ± 1%; in data set [1] (listed as vasopressin), 9%. The “normal saline administered for pressure support” value in data set [1] (p=0.03 vs placebo, FIG. 10A) turned out to be 40 ± 43 mL. In data set [1] (p=0.045 vs. placebo, FIG. 10B), the “volume of extra fluid removed during the dialysis above the baseline prescription” value was 460 ± 100 mL. For the same compound, the level at 1 h in data set [2] (setting [3]) is 0.025 ± 0.006 ng/mL; in data set [2] (setting [4]) it was 0.054 ± 0.006 ng/mL. Besides, the values for the level at 2 h in data set [2] (setting [3]) and in data set [2] (setting [4]) were 0.029 ± 0.006 ng/mL and 0.052 ± 0.009 ng/mL, respectively. Besides, the figures for the level at 0 h in data set [2] (setting [3]) and in data set [2] (setting [4]) were 0.026 ± 0.004 ng/mL and 0.047 ± 0.006 ng/mL, respectively. The “change of plasma concentrations of vasopressin by hemodialysis” value in data set [2] (steady state during constant infusion, hemodialysis initiated after >1 hour) is given as “not significantly changed”.
